# Results reported in US7704502B2, “Combinations of antibodies selective for DR5 and other therapeutic agents” (The UAB Research Foundation, priority 2000, dated 2010).
# Columns and labels:
# PC-3 cells = assay: Combination study of TRA-8 with Paclitaxel (XTT); format: cell-based, human; details: Paclitaxel alone, concentrations of up to 200 nM
# Protocol: Human prostate cancer cell line PC-3 is obtained from American Tissue Culture Collection (ATCC) and maintained in F-12K Nutrient Mixture (21127-022, Gibco BRL) containing 10% fetal bovine serum (FBS, Hyclone), 1% L-Glutamine-200 mM (25030-149, Gibco BRL) and 0.5% Penicillin Streptomycin Solution (P-7539, Sigma). RPMI1640 medium (MED-008, IWAKI) supplemented with 10% FBS and 0.5% Penicillin Streptomycin Solution is used in the following experiment. Exponentially growing PC-3 cells are collected by trypsinization and washed twice with fresh medium. The cells are then counted, resuspended in fresh medium at a density of 5×10^4 cells/ml and distributed in triplicate into flat-bottomed 96 well plates (3598, Corning-Coster) in a total volume of 100 μl/well one day before the start of the experiment. A representative anti-cancer drug, Paclitaxel (169-18611, Wako) dissolved in dimethylsulfoxide (10 mg/ml) is diluted in fresh medium and then added to the 96-well plates containing the cells at 50 μl/well. The final concentrations of dimethylsulfoxide are less than 0.1%. […] After incubation for a further 24 hr, 50 μl of Minimum Essential Medium (11095-098, Gibco BRL) containing 1 mg/ml of XTT and […] of PMS is added to the wells and the plates are incubated for 6 hr. OD450 is then measured by SPECTRA MAX 250 (Molecular Devices) and the cell viability is calculated as follows.
# [1] = test system: 2LMP human breast cancer xenografts; assay: TRA-8 therapy alone or with chemotherapy or radiation, breast cancer xenografts; format: in vivo, athymic nude mice; details: aggregate of 6 experiments
# Protocol: Athymic nude mice were injected s.c. with 3×10^7 2LMP cells. […] The growth of tumors was monitored over time. […] Tumor size and regression rates were determined.
# Data from 6 independent experiments were analyzed by individual experiment. Treatment combinations were compared with respect to in vivo anti-tumor efficacy, i.e., inhibition of tumor growth, which was measured as three endpoints; extension of tumor doubling times, percentage of tumor regressions, and growth rates over time. The actual number of days at which the tumor doubled in surface area (product of two diameters) relative to baseline on day 7 after tumor cell injection was used in the doubling time analysis. The nonparametric Kruskal-Wallis test was used for median tumor doubling time comparisons between treatments. Fisher's exact test was used to compare the proportions of tumor regressions and relapse-free regressions across treatment groups. To determine if any combination therapy produced significant synergistic inhibition of tumor growth, i.e., more than additive, the growth curves from the serial area measurements were compared using a linear mixed model approach over the first 3 weeks after start of therapy (Lindsey, J. K. Models for Repeated Measurements, pp. 100-142, Oxford, 1993). To test for synergistic effects of the combination therapies, an interaction term was included in the model. If the interaction term was significant and the effect was inhibition of growth at a rate greater than additive then the interaction was considered synergistic.
# A total of 166 animals, 10 treatment groups, and 6 independent experiments were included in the aggregate analysis. Treatment combinations were compared with respect to in vivo anti-tumor efficacy. The median tumor doubling times were analyzed using the Kruskal-Wallis test and Fisher's exact test was used to compare the proportions of tumor regressions and relapse-free regressions across treatment groups.
# 2LMP xenografts = assay: Analysis of apoptosis in xenografts (TUNEL); format: in vivo, athymic nude mice; details: day 14
# Protocol: One group of mice was untreated. The xenografts were dissected for the study of apoptosis on day 14 after tumor cell injection. The reason for the substantial reduction in treatment intensity compared to our standard treatment protocol was to allow adequate tumor tissue for analysis on day 14. Tunel assay for apoptosis in tumor xenografts was performed as follows. Five-micron paraffin sections of tissue were mounted on Superfrost/Plus slides and heated at 58° C. for 1 h. Tissue sections were deparaffinized in three changes of xylene and rehydrated with one change of absolute ethanol, 95% ethanol, and 70% ethanol, each in 5-min increments. Then, the sections were placed in Tris-buffered saline (0.5M Tris base, 0.15 M NaCl, 0.0002% Triton X-100™, pH 7.6). Apoptotic nuclei were detected using an Apop Tag Peroxidase kit (Intergen, Purchase, N.Y.). Proteinase K (20 μg/ml in distilled deionized H2O) was added to the tissue specimens and incubated at room temperature for 15 min. Endogenous peroxidases were quenched with an aqueous solution of 3% hydrogen peroxide for 5 min. Sections were treated with an equilibration buffer for 30 min and then incubated with the TdT/enzyme (diluted in labeling reaction mix) for 1 h at 37° C. using parafilm covers. During this incubation, the TdT enzyme binds the 3′-OH ends of DNA fragments and catalyzes the addition of digoxigenin-labeled and unlabeled deoxynucleotides. Negative controls were incubated with distilled H2O (diluted in labeling reaction mix) instead of the TdT enzyme. A stop buffer was added for 10 min at room temperature to terminate the labeling reaction. An anti-digoxigenin conjugate was added to each slide for 30 min. The chromagen 3,3′ DAB was used to visualize the labeled 3′ OH end of DNA fragments. The slides were then rinsed in deionized water and lightly counterstained with hematoxylin, dehydrated using graded alcohols and xylene and coverlsipped using Permount. Approximately 10 random fields were evaluated for percentage of Tunel stained and percentage of intensely stained apoptotic bodies throughout the tissue.
structure (smiles),measurement,setting,value
CC(=O)O[C@H]1C(=O)[C@@]2(C)[C@H]([C@H](OC(=O)c3ccccc3)[C@]3(O)C[C@H](OC(=O)[C@H](O)[C@@H](NC(=O)c4ccccc4)c4ccccc4)C(C)=C1C3(C)C)[C@]1(OC(C)=O)CO[C@@H]1C[C@@H]2O [Paclitaxel],cell viability remaining,PC-3 cells,more than 40%
same,Complete Regressions No relapse (%),[1]; number of animals (%),0
same,Complete Regressions Total (%),[1]; number of animals (%),0
same,Tumor Doubling Time (mean),[1]; relative to day 7,25 days
same,Tumor Doubling Time (median),[1]; relative to day 7,20 days
same,TUNEL stained cells,"2LMP xenografts; 100 μg TRA-8 days 7, 10, adriamycin 3 mg/kg or paclitaxel 10 mg/kg days 8, 11, untreated 4%",7%
same,intensely stained cells,"2LMP xenografts; same regimen, untreated 1%",2%
